Consider two compounds from patent US8735620B2, “Processes for preparing (E)-styrylbenzylsulfone compounds and uses thereof for treating proliferative disorders” (priority 2008, dated 2014).

The subject of one data set is Sk-OV-3. The experiment in a line: Tumor cell killing, Sk-OV-3. In kind it is cell-based, human. The settings on record: Sk-OV-3, OVARIAN; read-out: Tumor cell killing (IC50) concentration. As for the experimental part:
Tissue Culture and Reagents: Paclitaxel was purchased from Sigma. Cell lines were purchased from ATCC. Cell lines were routinely grown in DMEM or RPM1 (CellGro) supplemented with 10% fetal bovine serum (Atlas) and 1 unit/mL penicillin-streptomycin (Gibco).
A number of tumor cell lines were tested using a dose response end point assay system. The cells were grown in either DMEM or RPMI supplemented with 10% fetal bovine serum and 1 unit/mL Penicillin-Streptomycin solution. The tumor cells were plated into 6 well dishes at a cell density of 1.0×10^5 cells/mL/well and compounds were added 24 h later at various concentrations. Cell counts were determined from duplicate wells after 96 h of treatment. The total number of viable cells was determined by trypan blue exclusion.

Data set [1] has as its system BT20 human breast carcinoma xenograft. The experiment in a line: Nude mouse xenograft assay. As for the experimental part: Female athymic (NCr-nu/nu) mice were injected subcutaneously with 0.5-1×10^7 ER-negative human breast tumor cells (BT-20) in 0.2 mL of PBS and the tumors allowed to grow to a size of 100-150 mm^3 in size in about 14 days. The mice were then paired such that the pairs harbored equal sized tumors, which were then used to test the therapeutic effects of 6s and 6ab. A Of the pairs, the animals were treated with either 50 mg/kg 6s following a Q4D schedule or 25 mg/kg using a Q2D schedule or vehicle (DMSO) control. The tumor size was then measured on alternate days in two dimensions and the volume determined using either of the following equations: 1: V=(L×(S^2))π/6); where L is the longer and S is the shorter of the two measurements. B. 6ab was dissolved in PBS and was administered intravenously (50 mg/kg) through the tail vein on every alternate day. Tumor measurements were done as in materials and methods.
Female athymic (NCR-nu/nu, Taconic) nude mice were injected with 0.5-1.0×10^7 BT20 cells subcutaneously in the hind leg using a 1 mL tuberculin syringe equipped with a 271/2 gauge needle. Approximately 14 days later, mice were paired (N=8) and injected with 6ab or Phosphate buffered saline as the vehicle control. The intravenous injections were performed in the mouse tail vein using a 1 mL tuberculin syringe equipped with a 30 gauge needle. The animals were injected following a Q2D×3 schedule. Tumor measurements (two dimensions) were done three times per week using traceable digital vernier calipers (Fisher).

As to `COc1cc(OC)c(/C=C/S(=O)(=O)Cc2ccc(OC)c(O)c2)c(OC)c1` [6aa, (E)-2,4,6-Trimethoxystyryl-3-Hydroxy-4-Methoxybenzyl Sulfone], the IC50 with Sk-OV-3 turned out to be 6 nM.

For `COc1ccc(CS(=O)(=O)/C=C/c2c(OC)cc(OC)cc2OC)cc1` [6s, (E)-2,4,6-Trimethoxystyryl-4-Methoxybenzyl sulfone], the “fold increase in tumor volume” value in data set [1] (25 mg/kg Q2D, IP, 22 day period, vehicle 5 fold) is listed as 2.5 fold. In addition, the final tumor volume in data set [1] (25 mg/kg Q2D, IP, after 22 days, from 67.5 mm^3) came to 165 mm^3. In addition, the “tolerability by body weights and physical observations” value in data set [1] (50 mg/kg Q4D or 25 mg/kg Q2D, IP) is on record as “well tolerated”. Moreover, in data set [1] (50 mg/kg Q4D, IP, 22 day period, vehicle 5 fold), the “fold increase in average tumor volume” value turned out to be 2.9 fold. For the same compound, the “final average tumor volume” value in data set [1] (50 mg/kg Q4D, IP, after 22 days, from 74 mm^3) is reported as 217 mm^3. In data set [1] (8 mice per group), the “tumor volume response of the majority of the mice” value is “growth arrest or a gradual reduction in their tumor volume”.
